Read-outs that look alike come from different tables or passages of the source. Where only a bound is given, the exact number is not on record here.

A word on the clearance: it is the volume of plasma or blood freed of the substance per unit of time. In general, Cmax refers to the highest concentration seen after dosing. One may read the logD as lipophilicity at a set pH, counting ionised and neutral species. A higher logD goes with a more lipophilic compound. In general, IC50 refers to the concentration that inhibits the measured activity by half. By Papp A→B is commonly meant how fast a substance crosses the layer from the apical side.

The target of data set [1] is hERG potassium channel (Homo sapiens, UniProt Q12809). In words: hERG radioligand binding assay. The following applies: at 10 µM. A general note: hERG is a cardiac potassium channel; its block is linked to QT prolongation.
A short description of data set [2]: Pharmacokinetics in uninfected mice. Type of data set: in vivo, mouse.
The nature of data set [3]: Lipophilicity. Type of data set: physicochemical. The source says: Table 3 In vitro physicochemical and ADME properties of SCYX-7158. | column: Value
The target of data set [4] is T1, hERG channel expressed in HEK-293 cells (Homo sapiens, UniProt Q12809).
T1 construct: expressed in transfected cells; host or cells: HEK-293
In words: hERG whole-cell patch clamp. Type of data set: cell-based.

In data set [5] the target is T2, P-glycoprotein (human MDR1) (Homo sapiens, UniProt P08183).
T2 construct: expressed in transfected cells; host or cells: MDCKII (canine kidney) cells, provided by P. Borst
In words: MDCKII-hMDR1 monolayer permeability and P-gp efflux. Type of data set: in vitro ADME. As to conditions: dog. How it is done: (§1) T. b. brucei was cultured in complete HMI-9 medium,[20] which contains 10% fetal bovine serum (FBS) (Invitrogen, Carlsbad, CA), 10% Serum Plus medium (SAFC Biosciences, Lenexa, KS), and 100 units/mL penicillin and 0.1 mg/mL streptomycin. The trypanosomes were propagated in T-25 vented cap flasks (Corning Inc., Lowell, MA) at 37°C and 5% CO2 with humidity. To ensure log growth phase, trypanosomes were sub-cultured at appropriate dilutions (typically 1∶100) every 2–3 days in fresh HMI-9 medium. T. b. rhodesiense parasites were grown in MEM medium with Earle's salts supplemented with 15% horse serum. For T. b. gambiense, the MEM medium was supplemented with 5% heat-inactivated fetal calf serum (FCS) and 15% human serum.[21] L929 mouse fibroblast cells (ATCC CCL1, American Type Culture Collection, Rockville, MD) were used to determine parasite versus mammalian cell selectivity. Cells were cultured in Dulbecco's Modified Eagle Medium (DMEM), supplemented with 10% FBS, L-glutamine and 100 units/mL penicillin and 0.1 mg/mL streptomycin. MDCKII-hMDR1 cells were generously provided by P. Borst at the Netherlands Kancer Institute. Cells were cultured in DMEM with Glutamax, 10% (v/v) FBS, and 100 units/mL penicillin and 0.1 mg/mL streptomycin. Cell monolayers were fed with cell culture media 24 h after seeding and used for permeability studies 3 days later.
(§2) The propensity of the compound to cross the blood-brain barrier was examined using an in vitro MDCKII-hMDR1 transwell assay.[24] MDCKII-hMDR1 cells were seeded at density of 3×10^5 cells per well onto microporous polycarbonate membranes in 12 well Costar Transwell plates (Corning Inc., Lowell, MA). The cells were used for permeability studies 3 days later. Trans-epithelial resistance (TEER) was measured for each insert to ensure the integrity of the monolayer (acceptable TEER >50 Ωcm^2).
(§3) The permeability and propensity for P-gp-mediated efflux was evaluated by adding each compound at a concentration of 3 µM, in the presence or absence of 2 µM GF120918, to the apical compartment. Competency of the P-gp efflux transporter was confirmed by assay of propranolol (non-substrate) and amprenavir (substrate). Cell monolayers were incubated in triplicate with shaking (160 rpm) at 37°C in a 5% CO2-enriched humidified atmosphere for 1 h. Samples were removed from the apical and basolateral compartments after incubation and assayed for test compound concentrations by LC-MS/MS. Values for mass balance, PappA→B, PappA→B+GF918, and absorption quotient (AQ) were calculated for each compound.[25], [26], [27] Acceptance criterion for mass balance was 70–120%.

For data set [6], the target named is T3, MDCKII-hMDR1 cells (P-glycoprotein) (Homo sapiens, UniProt P08183).
T3 construct: expressed in transfected cells; host or cells: MDCKII (canine kidney) cells, provided by P. Borst
The description is as above. It counts as in vitro ADME. The protocol:
as §1, §2, §3

Data set [7] in a line: Tolerability in mice during efficacy studies. It counts as in vivo. The following applies: doses up to 100 mg/kg BID (200 mg/kg/day), highest dose administered.
Data set [8] has as its system T. b. brucei 427. In words: Reversibility of trypanocidal effects (wash-out). It counts as cell-based. The following applies: at about 5 times the IC50. How it is done:
To establish the time and concentration required to cause persistent or irreversible effects by oxaboroles, T. b. brucei parasites were assessed for their ability to recover from transient exposure to test compounds. Trypanosomes were seeded in clear 96-well V-bottom plates at a density of 1×10^5 parasites per well and incubated with serially diluted test compound (from 10 to 0.02 µg/mL). One plate was prepared for each time point. At the designated time, a plate was removed from the incubator and spun at 2,600 g for 5 min to sediment the parasites. The supernatant was aspirated and 100 µL of warmed HMI-9 media was added to each well. The wash was repeated twice more. The parasites were resuspended in 100 µL of warmed media and 20 µL of this suspension was added to 80 µL of HMI-9 media in triplicate plates. Following a 72 h incubation, resazurin was added and trypanocidal activity determined as described for the in vitro sensitivity assay.

T1 sequence (Q12809 whole entry): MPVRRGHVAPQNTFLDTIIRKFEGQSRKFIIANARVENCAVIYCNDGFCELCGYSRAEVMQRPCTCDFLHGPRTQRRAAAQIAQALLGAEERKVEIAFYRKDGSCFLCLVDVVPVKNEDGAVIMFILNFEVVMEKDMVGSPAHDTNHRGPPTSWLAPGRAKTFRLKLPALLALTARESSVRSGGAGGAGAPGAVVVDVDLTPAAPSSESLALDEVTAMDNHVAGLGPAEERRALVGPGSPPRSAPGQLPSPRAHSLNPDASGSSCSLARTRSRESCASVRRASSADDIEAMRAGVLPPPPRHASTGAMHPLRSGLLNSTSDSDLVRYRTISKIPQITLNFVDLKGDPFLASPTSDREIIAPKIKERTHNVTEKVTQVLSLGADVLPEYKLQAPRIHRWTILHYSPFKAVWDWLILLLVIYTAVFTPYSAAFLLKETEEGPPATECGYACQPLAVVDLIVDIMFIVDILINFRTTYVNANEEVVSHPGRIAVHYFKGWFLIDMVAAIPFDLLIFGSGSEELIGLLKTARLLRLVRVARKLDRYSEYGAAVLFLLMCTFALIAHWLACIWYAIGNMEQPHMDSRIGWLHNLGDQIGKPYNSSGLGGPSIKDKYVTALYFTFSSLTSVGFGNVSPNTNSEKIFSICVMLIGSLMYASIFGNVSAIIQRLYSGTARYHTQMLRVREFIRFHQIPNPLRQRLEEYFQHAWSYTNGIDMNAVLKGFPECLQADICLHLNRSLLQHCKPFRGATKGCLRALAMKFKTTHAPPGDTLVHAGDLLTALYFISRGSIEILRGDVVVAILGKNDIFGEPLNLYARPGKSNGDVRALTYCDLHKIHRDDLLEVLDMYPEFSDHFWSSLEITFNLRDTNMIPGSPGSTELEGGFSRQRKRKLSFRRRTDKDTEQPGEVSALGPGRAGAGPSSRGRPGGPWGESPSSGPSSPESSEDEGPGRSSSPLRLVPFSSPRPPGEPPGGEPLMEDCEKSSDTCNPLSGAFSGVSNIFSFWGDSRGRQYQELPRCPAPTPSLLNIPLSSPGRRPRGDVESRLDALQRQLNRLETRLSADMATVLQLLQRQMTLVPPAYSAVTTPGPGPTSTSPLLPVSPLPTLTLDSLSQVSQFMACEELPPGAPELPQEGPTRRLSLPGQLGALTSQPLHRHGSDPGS
T3 sequence (P08183 whole entry): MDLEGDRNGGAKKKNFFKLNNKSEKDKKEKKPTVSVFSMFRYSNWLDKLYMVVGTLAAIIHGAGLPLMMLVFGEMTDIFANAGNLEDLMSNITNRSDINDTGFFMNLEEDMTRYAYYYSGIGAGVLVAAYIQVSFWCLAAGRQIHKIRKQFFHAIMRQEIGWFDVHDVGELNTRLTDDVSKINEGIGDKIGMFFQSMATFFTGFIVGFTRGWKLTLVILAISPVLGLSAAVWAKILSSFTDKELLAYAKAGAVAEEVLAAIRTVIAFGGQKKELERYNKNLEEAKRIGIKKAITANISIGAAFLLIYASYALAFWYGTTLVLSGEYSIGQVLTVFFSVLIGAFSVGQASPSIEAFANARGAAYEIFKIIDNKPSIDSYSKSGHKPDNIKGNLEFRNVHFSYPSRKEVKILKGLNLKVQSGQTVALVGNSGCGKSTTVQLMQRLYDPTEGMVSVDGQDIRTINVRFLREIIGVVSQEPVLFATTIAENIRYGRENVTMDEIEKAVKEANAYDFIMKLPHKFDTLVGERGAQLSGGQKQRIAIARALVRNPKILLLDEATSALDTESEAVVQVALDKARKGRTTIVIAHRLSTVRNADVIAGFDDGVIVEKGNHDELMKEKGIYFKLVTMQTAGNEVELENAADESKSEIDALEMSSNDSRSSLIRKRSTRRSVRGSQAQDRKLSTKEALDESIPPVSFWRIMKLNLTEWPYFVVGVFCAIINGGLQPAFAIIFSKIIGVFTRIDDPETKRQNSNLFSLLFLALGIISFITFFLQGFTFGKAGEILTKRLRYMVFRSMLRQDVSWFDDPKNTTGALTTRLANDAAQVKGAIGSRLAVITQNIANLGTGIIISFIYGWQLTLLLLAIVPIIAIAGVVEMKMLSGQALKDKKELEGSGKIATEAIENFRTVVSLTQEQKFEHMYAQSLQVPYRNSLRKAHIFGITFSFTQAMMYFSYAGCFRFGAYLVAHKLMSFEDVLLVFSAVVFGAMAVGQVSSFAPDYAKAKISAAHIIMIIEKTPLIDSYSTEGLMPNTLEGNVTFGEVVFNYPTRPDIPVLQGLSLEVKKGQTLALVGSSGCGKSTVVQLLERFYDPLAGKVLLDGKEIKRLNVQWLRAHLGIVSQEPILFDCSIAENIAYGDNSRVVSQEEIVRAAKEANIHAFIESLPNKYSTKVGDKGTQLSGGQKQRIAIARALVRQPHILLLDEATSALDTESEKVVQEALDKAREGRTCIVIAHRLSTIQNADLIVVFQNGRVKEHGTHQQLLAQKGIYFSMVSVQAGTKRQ
T2 sequence (P08183 whole entry): as above
Chain of hERG potassium channel (Q12809 whole entry): as the sequence (Q12809 whole entry) above

As for `CC1(C)OB(O)c2cc(NC(=O)c3ccc(F)cc3C(F)(F)F)ccc21` [SCYX-7158], in data set [1], the “binding to hERG channel” value is −6%. Moreover, the “brain AUC0–24 h” value in data set [2] (4.3 mg/kg intravenous, brain) is 5.57 µg·h/mL. The clearance in data set [2] (male, CD-1, mouse, plasma, 4.3 mg/kg intravenous, read-out: systemic clearance (CL) (converted)) is 0.089 L/h/kg. Further, in data set [2] (male, CD-1, mouse, plasma, 4.3 mg/kg intravenous, read-out: volume of distribution (Vdss)), the Vd stood at 1.69 L/kg. The molecule also returned a Cmax in data set [2] (male, CD-1, mouse, oral dose of 56 mg/kg SCYX-7158, plasma) of 18 µg/mL. The molecule further returned a logD in data set [3] of 3.51. Also, the mean fractional block in data set [4] (30 µM) was determined as 0.108±0.037; in data set [4] (100 µM) it was 0.198±0.018. This molecule yielded an IC50 in data set [4] (indicated by patch clamp fractional block) of more than 100 µM. The Papp A→B at 1 h, 3 µM in data set [5] (MDCK-MDR1, with GF120918 2 µM, in presence of P-gp inhibitor GF120918 (2 µM), read-out: Papp A→B + GF120918) was found to be 853 nm/s; in data set [5] (MDCK-MDR1, apical to basolateral, 3 µM (1.1 µg/mL), 1 h, read-out: Papp A→B), 776 nm/s. Also, in data set [6] (calculated from Papp with and without GF120918), the “AQ (absorption quotient)” value was 0.09. Moreover, in data set [6] (from AQ), the P-gp substrate status result was “not a P-gp substrate”. Besides, in data set [7], the tolerability result is on record as “well tolerated”. In addition, the “exposure time sufficient to produce irreversible effects on trypanosome survival” value in data set [8] is 10 to 12 h.

The values are drawn from PMC3125149, “SCYX-7158, an Orally-Active Benzoxaborole for the Treatment of Stage 2 Human African Trypanosomiasis” (PLoS Neglected Tropical Diseases, 2011).
